Measurements from patent US10391015B2, “Apparatus and method for restoring voluntary control of locomotion in neuromotor impairments” (ECOLE POLYTECHNIQUE FEDERALE DE LAUSANNE (EPFL), priority 2012, dated 2019).

Key:
left motor cortex = test: Inactivation of the motor cortex by muscimol microinjection in overground-trained SCI rats; assay type: in vivo, rat; details: overground-trained rats with T7/T10 staggered hemisections; intra-cortical microinjection into left motor cortex (800 nl, 4.5 mg/Kg); p<0.01; functionality of lumbosacral circuits uncompromised
Procedure: (§1) To ablate T8-T9 neurons, we infused NMDA (1% in dH2O) into 14 sites (depth 1 mm, total volume 3 μl) covering spinal levels T8-T9. Rats were tested 5 days post-lesion, and sacrificed on the following day. The ablation of neurons was verified post mortem on tissue sections stained with mouse anti-NeuN (1:500, Chemicon, USA) antibodies. To inactivate the motor cortex, we injected the GABA-agonist muscimol intra-cortically (800 nl, 4.5 mg/Kg). Five days prior to experiments, we stereotaxically implanted a catheter (OD: 0.61 mm, ID: 0.28 mm) into the left motor cortex at a depth of 1.5 mm. Proper catheter location was verified post mortem on tissue sections stained (Invitrogen, USA) for fluorescent Nissl visualization.
Contrary to primates, the rodent motor cortex is not essential to produce locomotion (G. Courtine et al., Can experiments in nonhuman primates expedite the translation of treatments for spinal cord injury in humans? Nature medicine 13, 561 (May, 2007)). […] First, we implanted stimulating epidural electrodes over the left motor cortex to verify that the reorganization of neuronal pathways re-established connectivity across the lesion. […] Second, we implanted a microwire array in the vicinity of CST neurons projecting to T8-T9 segments, and recorded neuronal modulations during voluntary locomotion in overground-trained rats (n=3). […]

T8-T9 neurons = test: Ablation of T8-T9 neurons by NMDA infusion in overground-trained SCI rats; assay type: in vivo, rat; details: overground-trained rats with T7/T10 staggered hemisections, NMDA 1% in dH2O into 14 sites, tested 5 days post-lesion, p<0.01, functionality of lumbosacral circuits uncompromised
Procedure: as §1
Anatomical examinations highlighted an extensive remodelling of supraspinal and intraspinal projections in rats that regained voluntary locomotion. We first conducted retrograde tract tracing from L1-L2 locomotor centers. We found a significant increase (p<0.01) in the number of labeled neurons in intermediate and ventral laminae of T8-T9 segments in both overground-trained and treadmill-trained rats compared to non-trained animals. Analysis of the activity-dependent marker cfos after continuous overground locomotion confirmed that the labeled neurons were active during walking. […]

SMILES | effect on voluntary hindlimb locomotion (left motor cortex) | effect on regained voluntary locomotion (T8-T9 neurons)
NCc1cc(=O)[nH]o1 [Muscimol, muscimol] | immediately suppressed voluntary hindlimb locomotion | 
CN[C@H](CC(=O)O)C(=O)O [NMDA, N-methyl-D-aspartic acid] |  | abolished the regained voluntary locomotion
